Experimental findings from patent US6685617B1, “Inhibitors of α4β1 mediated cell adhesion” (Pharmacia & Upjohn Company, priority 1998, dated 2004) are described below.

The target in experiment [1] is T1, α4β1 integrin (Jurkat T-cell adhesion to IL-1 stimulated endothelial cell monolayers) (Homo sapiens, UniProt P05556+P13612).
T1 construct: a T-cell line, Jurkat, known to express the α4β1 integrin; host or cells: Jurkat T-cell line
Put plainly: Jurkat-endothelial cell adhesion assay (Jurkat EC). It is filed as cell-based. The conditions noted are these: Jurkat cells on IL-1 stimulated human umbilical vein endothelial cells; read-out: JK/EC (Jurkat EC Assay IC50 value range). Put shortly: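 BCECF-AM-labelled Jurkat cells were mixed with compound, generally 100, 20, 5 and 1.25 μM, and added to HUVEC monolayers (passage ≤6) pre-stimulated 4 hr at 37° C with 0.1 ng/ml IL-1. After 5 min on ice and 20 min at 37° C, washed wells were read by fluorescence as % adhesion relative to no compound.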

Experiment [2] addresses T2, α4β1 integrin (Jurkat cell adhesion to immobilized CS-1 derived peptide CLHPGEILDVPST) (Homo sapiens, UniProt P05556+P13612).
T2 construct: 100 μl of Jurkat cells (2.5×10^6 cells/ml) in DMEM plus BSA; host or cells: Jurkat T-cell line
Put plainly: Jurkat-CS-1 assay. It is filed as cell-based. The conditions noted are these: Jurkat cells on CS-1 peptide coated plates; read-out: JK/CS-1 (Jurkat CS-1 Assay IC50 value range). Put shortly:
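CS-1 peptide was SPDP-crosslinked onto HSA-coated plates and blocked with BSA. Jurkat cells (2.5×10^6 cells/ml) in DMEM/BSA were mixed with compound, generally at 100, 20, 5 and 1.25 μM, and allowed to adhere for 1 hr at 37° C. Bound cells were fixed, stained with toluidine blue and quantified by OD590.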

SMILES strings stand for the structures. Where a name gives a salt, the structure may show the parent alone.

T2 sequence (P13612 34-1032): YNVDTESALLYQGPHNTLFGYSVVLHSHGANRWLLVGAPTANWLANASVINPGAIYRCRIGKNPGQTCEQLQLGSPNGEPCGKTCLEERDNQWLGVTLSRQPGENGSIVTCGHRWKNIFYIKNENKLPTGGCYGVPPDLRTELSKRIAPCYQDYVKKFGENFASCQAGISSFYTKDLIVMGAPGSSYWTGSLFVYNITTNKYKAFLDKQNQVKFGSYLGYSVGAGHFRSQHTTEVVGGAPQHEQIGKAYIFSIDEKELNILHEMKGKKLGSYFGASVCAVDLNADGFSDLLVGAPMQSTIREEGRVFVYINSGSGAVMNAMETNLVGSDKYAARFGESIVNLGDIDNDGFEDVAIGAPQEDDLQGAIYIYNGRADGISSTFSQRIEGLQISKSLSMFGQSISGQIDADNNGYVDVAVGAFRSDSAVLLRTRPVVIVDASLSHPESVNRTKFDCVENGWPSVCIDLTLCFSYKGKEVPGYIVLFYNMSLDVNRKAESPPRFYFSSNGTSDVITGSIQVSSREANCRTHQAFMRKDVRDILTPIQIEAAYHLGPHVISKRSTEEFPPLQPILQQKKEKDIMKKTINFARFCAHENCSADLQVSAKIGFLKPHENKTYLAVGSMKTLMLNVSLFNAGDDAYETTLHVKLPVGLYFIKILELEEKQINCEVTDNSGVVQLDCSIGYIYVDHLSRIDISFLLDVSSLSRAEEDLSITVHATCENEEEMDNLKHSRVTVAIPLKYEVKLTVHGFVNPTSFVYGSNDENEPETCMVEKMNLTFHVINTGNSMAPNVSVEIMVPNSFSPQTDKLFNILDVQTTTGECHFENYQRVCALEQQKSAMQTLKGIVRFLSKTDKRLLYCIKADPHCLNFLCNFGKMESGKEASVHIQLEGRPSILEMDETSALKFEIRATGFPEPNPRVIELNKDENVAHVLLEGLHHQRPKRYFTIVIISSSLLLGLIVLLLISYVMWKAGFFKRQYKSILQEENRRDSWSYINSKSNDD
T2 sequence (P05556 21-798): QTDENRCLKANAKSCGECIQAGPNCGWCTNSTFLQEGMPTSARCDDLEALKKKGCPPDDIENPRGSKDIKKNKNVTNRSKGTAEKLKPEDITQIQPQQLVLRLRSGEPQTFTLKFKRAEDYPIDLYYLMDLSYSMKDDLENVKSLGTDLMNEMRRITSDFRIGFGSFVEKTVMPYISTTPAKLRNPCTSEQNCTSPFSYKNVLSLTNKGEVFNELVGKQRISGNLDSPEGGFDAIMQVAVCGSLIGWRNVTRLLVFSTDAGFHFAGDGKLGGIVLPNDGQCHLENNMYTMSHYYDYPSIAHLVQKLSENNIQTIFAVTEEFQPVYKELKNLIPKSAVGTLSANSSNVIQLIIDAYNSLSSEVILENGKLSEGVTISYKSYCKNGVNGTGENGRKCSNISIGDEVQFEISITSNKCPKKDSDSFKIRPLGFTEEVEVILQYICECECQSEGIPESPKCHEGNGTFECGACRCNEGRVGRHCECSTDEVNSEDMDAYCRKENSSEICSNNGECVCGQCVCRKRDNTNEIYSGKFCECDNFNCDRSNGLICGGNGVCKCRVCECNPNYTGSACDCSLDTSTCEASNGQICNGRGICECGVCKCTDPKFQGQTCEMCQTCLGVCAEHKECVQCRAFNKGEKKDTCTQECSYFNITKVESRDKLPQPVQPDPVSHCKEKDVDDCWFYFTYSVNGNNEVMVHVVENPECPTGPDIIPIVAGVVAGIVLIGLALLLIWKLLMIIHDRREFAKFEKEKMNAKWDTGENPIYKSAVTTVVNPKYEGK
T1 sequence (P13612 34-1032): as the sequence (P13612 34-1032) above
T1 sequence (P05556 21-798): as the sequence (P05556 21-798) above

As for `COCCC(=O)N1CCCC[C@H]1C(=O)N[C@@H](Cc1ccc(NC(=O)c2c(Cl)cccc2Cl)cc1)C(=O)O` [Example 177], the IC50 in experiment [1] was ≥ 1000 nM; in experiment [2], ≤ 50 nM.
In the same order, the values of `CC(=O)CCC(=O)N1CCC[C@H]1C(=O)N[C@@H](Cc1ccc(NC(=O)c2c(Cl)cccc2Cl)cc1)C(=O)O` [Example 231] are ≥ 1000 nM and 50 to 750 nM.
In the same order, the values of `O=C(O)CCC(=O)N1CCCCC1C(=O)N[C@@H](Cc1ccc(NC(=O)c2c(Cl)cccc2Cl)cc1)C(=O)O` (some centres unmarked) [Example 167] are 250 to 1000 nM and 50 to 750 nM.
Turning to `COC(=O)[C@H](Cc1ccc(NC(=O)c2c(Cl)cccc2Cl)cc1)NC(=O)[C@@H]1CSCN1C(C)=O` [Example 69, N-[[(4R)-3-Acetyl-4-thiazolidinyl]carbonyl]-4-[(2,6-dichlorobenzoyl)amino]-L-phenylalanine Methyl Ester], the IC50 was ≥ 1000 nM in experiment [1] and ≥ 750 nM in experiment [2].
Consider `O=C(Nc1ccc(C[C@H](NC(=O)[C@@H]2CCCCN2C(=O)C2CCCO2)C(=O)O)cc1)c1c(Cl)cccc1Cl` (some centres unmarked) [Example 192], for which the IC50 in experiment [1] was ≤ 250 nM; in experiment [2], ≤ 50 nM.
In the case of `O=C(O)/C=C/C(=O)N1CCC[C@H]1C(=O)N[C@@H](Cc1ccc(NC(=O)c2c(Cl)cccc2Cl)cc1)C(=O)O` [Example 228], the values for the IC50 in experiment [1] and in experiment [2] were ≥ 1000 nM and 50 to 750 nM, respectively.
Consider `O=C(O)c1cncc(C(=O)N2CSC[C@@H]2C(=O)N[C@@H](Cc2ccc(NC(=O)c3c(Cl)cccc3Cl)cc2)C(=O)O)c1` [Example 263], for which the IC50 in experiment [1] lay within 250 to 1000 nM; in experiment [2] it was 50 to 750 nM.
In the case of `O=C(O)CC1(CC(=O)N2CCCC(C(=O)N[C@@H](Cc3ccc(NC(=O)c4c(Cl)cccc4Cl)cc3)C(=O)O)C2)CCCC1` (some centres unmarked) [Example 195], the figures for the IC50 in experiment [1] and in experiment [2] were ≥ 1000 nM and 50 to 750 nM, respectively.
The like results for `CC(C)(C)OC(=O)N1[C@H](C(=O)N[C@@H](Cc2ccc(NC(=O)c3c(Cl)cccc3Cl)cc2)C(=O)O)CSC1(C)C` (relative stereo) [Example 73, [R-(R*,S*)]-4-[[[Carboxy-2-[4-[(2,6-dichlorobenzoyl)amino]phenyl]ethyl]amino]carbonyl]-2,2-dimethyl-3-thiazolidinecarboxylic Acid 3-(1,1-Dimethylethyl)ester] were, in that order, ≥ 1000 nM and 50 to 750 nM.
As for `O=C(Nc1ccc(C[C@H](NC(=O)C2CNC2)C(=O)O)cc1)c1c(Cl)cccc1Cl` [Example 147, N-[[3-Azetidinyl]carbonyl]-4-[(2,6-dichlorobenzoyl)amino]-L-phenylalanine, Trifluoroacetic Acid Salt], the results for the IC50 in experiment [1] and in experiment [2] were ≥ 1000 nM and ≥ 750 nM, respectively.
Turning to `COCCC(=O)N1CCCC[C@@H]1C(=O)N[C@@H](Cc1ccc(NC(=O)c2c(Cl)cccc2Cl)cc1)C(=O)O` [Example 249], the IC50 in experiment [1] lay within 250 to 1000 nM; in experiment [2], 50 to 750 nM.
As for `COC(=O)CCC(=O)N1CSC[C@@H]1C(=O)N[C@@H](Cc1ccc(NC(=O)c2c(Cl)cccc2Cl)cc1)C(=O)OC` (relative stereo) [Example 8, [S-(R*,R*)]-4-[[[1-[[4-[(2,6-Dichlorobenzoyl)amino]phenyl]methyl]-2-methoxy-2-oxoethyl]amino]carbonyl]-γ-oxo-3-thiazolidinebutanoic Acid 3-Methyl Ester], the IC50 was in the range of 250 to 1000 nM in experiment [1] and 50 to 750 nM in experiment [2].
As for `O=C(O)c1cccc(C(=O)N2CCC[C@H]2C(=O)N[C@@H](Cc2ccc(NC(=O)c3c(Cl)cccc3Cl)cc2)C(=O)O)c1` [Example 235], the IC50 in experiment [1] is ≥ 1000 nM; in experiment [2], 50 to 750 nM.
Regarding `O=C(O)CCCC(=O)N1CSC[C@H]1C(=O)N[C@@H](Cc1ccc(NC(=O)c2c(Cl)cccc2Cl)cc1)C(=O)O` (relative stereo) [Example 68, [R-(R*,S*)]-4-[[[1-Carboxy-2-[4-[(2,6-dichlorobenzoyl)amino]phenyl]ethyl]amino]carbonyl]-δ-oxo-3-thiazolidinepentanoic Acid], the IC50 in experiment [1] is ≥ 1000 nM; in experiment [2], 50 to 750 nM.
In the case of `O=C(O)c1cccc(C(=O)N2CSC[C@H]2C(=O)N[C@@H](Cc2ccc(NC(=O)c3c(Cl)cccc3Cl)cc2)C(=O)O)n1` [Example 240], the IC50 in experiment [1] is ≥ 1000 nM; in experiment [2] it was 50 to 750 nM.
In the same order, the values of `CC(C)(C)OC(=O)N1CSCC1C(=O)NC(Cc1ccc(OCc2c(Cl)cccc2Cl)cn1)C(=O)O` (stereo not drawn) [Example 121, [S-(R*,R*)]-4-[[[1-Carboxy-2-[3-[(2,6-dihlorophenyl)methoxy]-6-pyridyl]ethyl]amino]carbonyl]-3-thiazolidinecarboxylic Acid (1,1-Dimethylethyl)ester] are ≥ 1000 nM and 50 to 750 nM.
`COC(=O)[C@H](Cc1ccc(NC(=O)c2c(Cl)cccc2Cl)cc1)NC(=O)[C@H]1CSC(C)(C)N1C(C)=O` [Example 83, N-[[(4S)-3-Acetyl-2,2-dimethyl-4-thiazolidinyl]carbonyl]-4-[(2,6-dichlorobenzoyl)amino]-L-phenylalanine Methyl Ester]: the IC50 was ≥ 1000 nM in experiment [1] and 50 to 750 nM in experiment [2].
For `O=C(Nc1ccc(C[C@H](NC(=O)[C@H]2CSCN2C(=O)c2cccnc2)C(=O)O)cc1)c1c(Cl)cccc1Cl` [Example 265], the IC50 in experiment [1] is ≤ 250 nM; in experiment [2], ≤ 50 nM.
Regarding `O=C(Nc1ccc(C[C@H](NC(=O)[C@H]2CCCN2C(=O)C2CCCO2)C(=O)O)cc1)c1c(Cl)cccc1Cl` (some centres unmarked) [Example 260], the IC50 in experiment [1] was in the range of 250 to 1000 nM; in experiment [2] it was 50 to 750 nM.
The like results for `O=C(Nc1ccc(C[C@H](NC(=O)[C@@H]2CSCN2C(=O)C2NC(C(=O)O)CS2)C(=O)O)cc1)c1c(Cl)cccc1Cl` (some centres unmarked) [Example 244] were, in that order, 250 to 1000 nM and 50 to 750 nM.
In the same order, the values of `CCN(CC)C(=O)N1CSC[C@@H]1C(=O)N[C@@H](Cc1ccc(NC(=O)c2c(Cl)cccc2Cl)cc1)C(=O)O` [Example 53, 4-[(2,6-Dichlorobenzoyl)amino]-N-[[(4S)-3-[(diethylamino)carbonyl]-4-thiazolidinyl]carbonyl]-L-phenylalanine] are ≤ 250 nM and ≤ 50 nM.
The like results for `O=C(Nc1ccc(C[C@H](NC(=O)[C@H]2CSCN2C(=O)OC23CC4CC(CC(C4)C2)C3)C(=O)O)cc1)c1c(Cl)cccc1Cl` (relative stereo) [Example 23, [S-(R*,R*)]-4-[[[1-Carboxy-2-[4-[(2,6-dichlorobenzoyl)amino]phenyl]ethyl]amino]carbonyl]-3-thiazolidinecarboxylic Acid 3-(Tricyclo[3.3.1.1^3,7]dec-1-yl)ester] were, in that order, ≤ 250 nM and ≤ 50 nM.
On to `O=C(Nc1ccc(C[C@H](NC(=O)[C@@H]2CSCN2)C(=O)O)cc1)c1c(Cl)cccc1Cl` [Example 71, 4-[(2,6-Dichlorobenzoyl)amino]-N-[[(4R)-4-thiazolidinyl]carbonyl]-L-phenylalanine Monohydrochloride Salt], for which the IC50 was ≥ 1000 nM in experiment [1] and ≥ 750 nM in experiment [2].
In the same order, the values of `CN(CCc1ccccn1)C(=O)N1CSC[C@@H]1C(=O)N[C@@H](Cc1ccc(NC(=O)c2c(Cl)cccc2Cl)cc1)C(=O)O` [Example 55, 4-[(2,6-Dichlorobenzoyl)amino]-N-[[(4S)-3-[[methyl[2-(2-pyridinyl)ethyl]amino]carbonyl]-4-thiazolidinyl]carbonyl]-L-phenylalanine] are ≤ 250 nM and ≤ 50 nM.
In the same order, the values of `COC(=O)[C@H](Cc1ccc(NC(=O)c2c(Cl)cccc2Cl)cc1)NC(=O)[C@H]1CSC(C)(C)N1C(=O)OC(C)(C)C` (relative stereo) [Example 75, [S-(R*,R*)]-4-[[[1-[[4-[(2,6-Dichlorobenzoyl)amino]phenyl]methyl]-2-methoxy-2-oxo-ethyl]amino]carbonyl]-2,2-dimethyl-3-thiazolidinecarboxylic Acid 3-(1,1-Dimethylethyl)ester] are ≥ 1000 nM and ≥ 750 nM.
In the same order, the values of `O=C(O)c1cccc(C(=O)N2CSC[C@@H]2C(=O)N[C@@H](Cc2ccc(NC(=O)c3c(Cl)cccc3Cl)cc2)C(=O)O)n1` [Example 264] are ≤ 250 nM and ≤ 50 nM.
As for `COC(=O)[C@H](Cc1ccc(NC(=O)c2c(Cl)cccc2Cl)cc1)NC(=O)[C@H]1CSCN1S(=O)(=O)c1cccc2c(N(C)C)cccc12` [Example 48, 4-[(2,6-Dichlorobenzoyl)amino]-N-[[(4S)-3-[[5-(dimethylamino)-1-naphthalenyl]sulfonyl]-4-thiazolidinyl]carbonyl]-L-phenylalanine Methyl Ester], the IC50 was ≥ 1000 nM in experiment [1] and ≥ 750 nM in experiment [2].
The like results for `CC(C)(C)OC(=O)N1[C@@H](C(=O)N[C@@H](Cc2ccc(NC(=O)c3c(Cl)cccc3Cl)cc2)C(=O)O)CSC1(C)C` (relative stereo) [Example 76, [S-(R*,R*)]-4-[[[1-Carboxy-2-[4-[(2,6-dichlorobenzoyl)amino]phenyl]ethyl]amino]carbonyl]-2,2-dimethyl-3-thiazolidinecarboxylic Acid 3-(1,1-Dimethylethyl)ester] were, in that order, ≤ 250 nM and 50 to 750 nM.
